Measurements as given in PubChem BioAssay (NCI).
Where “and” joins values, the source holds several entries; their conditions need not be identical. Equal entries are not always repeated.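 1) Cells in 96-well plates. 2) Compound, 48 h, 5 concentrations. 3) Linear interpolation between surrounding doses. 4) Unreached endpoint = highest concentration. GI50 is the concentration that inhibits growth by half. TGI denotes the concentration required for complete inhibition of growth.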

Experiments:
[1] = test system: P388/ADR leukemia; test: NCI tumour cell line growth inhibition, 48 h
[2] = test system: P388 leukemia; test: NCI tumour cell line growth inhibition, 48 h

| Structure (SMILES) | TGI [1] | TGI [2] | GI50 [2] [µM] | GI50 [1] [µM] |
| --- | --- | --- | --- | --- |
| COC1=C(C)C(=O)C2=C(C1=O)C(CO)N1C(C#N)C3CC4C(C1C2N1CCOC41)N3C (centres undefined) | > 100 µM | – | – | – |
| S=c1nc[nH]c2nc[nH]c12 | 548 µM | 242 µM | – | – |
| COc1ccc2[nH]c3c(C)c4cc[n+](C)cc4c(C)c3c2c1 | > 56.2 µM and > 75 µM and 125 µM | 19.1 µM and 10.8 µM and 16.5 µM | 1.78 | 20.8 |
| CC(C)[C@](O)(C(=O)OCC1=CC[N+]2([O-])CC[C@@H](O)[C@@H]12)[C@H](C)O (some centres undefined) | > 10000 µM | > 10000 µM | – | – |
